This test concerns the target T1, recombinant human MT1 receptor (Homo sapiens, UniProt P48039).
T1 construct: expressed in transfected cells; host or cells: unnamed cell line co-expressing mitochondrial apoaequorin and the Galpha16 subunit
The test is described as follows: Agonist activity on MT1 receptors (aequorin luminescence, Gα16 co-expressing cell line). The following applies: percentage activity with respect to the reference agonist at its EC100; for MT1 agonism, 1 nm: compound at 1 nm; for MT1 agonism, 100 nm: compound at 100 nm. It counts as cell-based. An excerpt: Determination of the Agonist Activity on MT1 Receptors
In order to screen compounds for the MT1 receptor a cell line is used that is characterised by stable overexpression of the recombinant human MT1 receptor in a cell line that in turn co-expresses mitochondrial apoaequorin and the Gα16 subunit.
The Ga16 subunit belongs to the G protein family, formed by GPCR, wherein the transduction of intracellular signals occurs via phospholipase (PLC). PLC activation produces an increase in inositol-triphosphate levels that leads to an increase in intracellular calcium. Ga16 overexpression thus allows an increase in intracellular calcium levels that is independent and compatible with the study receptor's own signal transduction pathway.
Following its binding to calcium, the aequorin oxidises coelenterazine to coelenteramide, a reaction that releases CO2 and light.
The trial protocol for the screening of possible agonists consists in collecting the cells and keeping them in suspension overnight in the presence of coelenterazine in order to reconstitute aequorin. On the following day the cells are injected on a plate where the compounds to be screened are diluted, and the luminescence released is read immediately. When wishing to study the possible antagonism of the same compounds, the reference agonist compound is added in the same well after 15-30 min from the first injection and the luminescence released is assessed.
Agonist activity is calculated as percentage activity with respect to the reference agonist at the concentration corresponding to its EC100. Antagonist activity is expressed as percentage inhibition over the reference agonist activity at the concentration corresponding to its EC80.

Our source for the MT1 agonism, 1 nm and MT1 agonism, 100 nm values is patent publication US20110112148A1, “INDOLINE COMPOUNDS” (Ferrer Internacional S.A., priority 2007, published 2011).

T1 sequence (P48039 whole entry): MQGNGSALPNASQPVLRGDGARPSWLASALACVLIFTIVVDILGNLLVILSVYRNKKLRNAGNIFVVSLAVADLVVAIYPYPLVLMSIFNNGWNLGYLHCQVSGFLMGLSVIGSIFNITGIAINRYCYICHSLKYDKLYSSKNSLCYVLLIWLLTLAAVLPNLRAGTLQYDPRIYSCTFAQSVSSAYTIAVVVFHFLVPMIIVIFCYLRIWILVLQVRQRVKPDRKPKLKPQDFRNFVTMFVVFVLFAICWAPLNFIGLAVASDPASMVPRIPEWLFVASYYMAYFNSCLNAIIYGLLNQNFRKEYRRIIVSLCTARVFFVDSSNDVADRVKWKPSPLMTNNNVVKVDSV

Consider `COc1ccc2c(c1)N(CCNC(=O)C(F)(F)F)CC2` [Example 4, 2,2,2-trifluoro-N-[2-(6-methoxy-2,3-dihydro-indol-1-yl)-ethyl]-acetamide], for which the MT1 agonism, 1 nm was determined as 14.6% and the MT1 agonism, 100 nm worked out at 94%.
On the same counts, the results for `COc1ccc2c(c1)N(C(C)CNC(C)=O)CC2` (centres unmarked) [Example 5, N-[2-(6-methoxy-2,3-dihydro-indol-1-yl)-propyl]-acetamide] are 11.5% and 89.8%.
The like results for `COc1ccc2c(c1)N(CCNC(C)=O)CC2` [Example 1, N-[2-(6-methoxy-2,3-dihydro-indol-1-yl)-ethyl]-acetamide] were, in that order, 13.1% and 92%.
With `CC(=O)NCCN1CCc2ccc3c(c21)CCO3` [N-[2-(2,3,7,8-tetrahydro-1H-furo[2,3-g]indol-1-yl)-ethyl]-acetamide, reference compound], the MT1 agonism, 1 nm was 13.9% and the MT1 agonism, 100 nm came out at 76.6%.
